According to the CheMixHub ionic liquid set:

Test: xn = mol fraction of the nth substance listed
Details: 100 kPa

C[NH2+]CCC=C1c2ccccc2CCc2ccccc21.[Cl-] + CCCC[n+]1ccn(C)c1.[Br-] + O
viscosity [mPa·s]
Details	288.15 K	298.15 K	308.15 K	318.15 K
x1 = 0.0001975, x2 = 0.0001801	1.159	0.927	0.763	0.646
x1 = 0.0002159, x2 = 0.00126	1.172	0.944	0.778	0.661
x1 = 0.0002212, x2 = 0.0007201	1.165	0.934	0.77	0.654
x1 = 0.0005439, x2 = 0.0001801	1.169	0.936	0.771	0.655
x1 = 0.0005594, x2 = 0.001259	1.182	0.953	0.787	0.671
x1 = 0.0005644, x2 = 0.0007199	1.176	0.943	0.779	0.664
x1 = 0.0009069, x2 = 0.0007196	1.187	0.952	0.788	0.674
x1 = 0.0009097, x2 = 0.00018	1.18	0.946	0.78	0.664
x1 = 0.0009344, x2 = 0.001259	1.193	0.963	0.796	0.68
x1 = 0.001275, x2 = 0.001258	1.204	0.973	0.805	0.689
x1 = 0.001278, x2 = 0.0001799	1.192	0.956	0.789	0.673
x1 = 0.001293, x2 = 0.0007194	1.199	0.961	0.797	0.682
x1 = 0.001648, x2 = 0.0007191	1.211	0.971	0.806	0.691
x1 = 0.001659, x2 = 0.0001799	1.204	0.967	0.798	0.681
x1 = 0.001665, x2 = 0.001258	1.216	0.984	0.814	0.698
x1 = 0.002, x2 = 0.0001798	1.217	0.978	0.807	0.689
x1 = 0.002031, x2 = 0.0007188	1.224	0.982	0.815	0.699
x1 = 0.002035, x2 = 0.001257	1.229	0.995	0.823	0.707
x1 = 0.002363, x2 = 0.0001797	1.23	0.989	0.816	0.697
x1 = 0.002378, x2 = 0.001257	1.243	1.006	0.832	0.715
x1 = 0.002383, x2 = 0.0007186	1.237	0.993	0.824	0.707
x1 = 0.002737, x2 = 0.0001797	1.244	1	0.826	0.705
x1 = 0.00275, x2 = 0.001256	1.257	1.018	0.842	0.723
x1 = 0.002759, x2 = 0.0007183	1.251	1.005	0.834	0.715
x1 = 0.003096, x2 = 0.001256	1.272	1.03	0.853	0.731
x1 = 0.003103, x2 = 0.0001796	1.258	1.012	0.836	0.713
x1 = 0.00311, x2 = 0.000718	1.265	1.019	0.845	0.723
x1 = 0.003471, x2 = 0.0001795	1.273	1.024	0.847	0.721
x1 = 0.003493, x2 = 0.001255	1.287	1.043	0.864	0.738
x1 = 0.003504, x2 = 0.0007178	1.28	1.033	0.856	0.731
